Assay results from US5977065A, “Bacterial nitroreductase for the reduction of CB1954 and analogues thereof to a cytotoxic form” (Cancer Research Campaign Technology Limited, priority 1991, dated 1999).

What was measured:
E. coli nitroreductase [1] = molecular target: T1, E. coli nitroreductase (Escherichia coli, UniProt P38489); assay: % drug reduction in the V79 incubations, remaining prodrug by HPLC (Table 8); format: biochemical
T1 construct: endogenous in cells; host or cells: E. coli B cell paste; endogenous enzyme purified by Phenyl-Sepharose and Q-Sepharose chromatography, not recombinant
Experimental: (§1) Generation of cytotoxicity by the action of the E. coli nitroreductase of Example 1 upon the prodrugs 4-[bis(2-chloroethyl)amino]phenylcarbamic acid 4'-nitrobenzyl ester (I where R^1 NH2 =III) and N-4-nitrobenzyloxy-carbonyl-actinomycin D (V) are shown in Table 8.
(§2) The effect of enzyme-activated prodrugs on the survival of V79
(§3) cells. 1 ml volumes of V79 cells (2 × 10^5 /ml) were incubated
(§4) with prodrug, 500 μM NADH, and 10 μg/ml enzyme. After a 2 hour
(§5) incubation at 37° C., the cells were harvested and assayed for
(§6) their colony forming ability, and the supernatant assayed for
(§7) the concentration of remaining prodrug by HPLC.

V79 cells [2] = assay: Survival (colony forming ability) of V79 cells with enzyme-activated prodrugs (Table 8); format: cell-based
Experimental: as §1, §2, §3, §4, §5, §6, §7

[3] = In vivo toxicity of prodrug in mice; details: for Weight as % of Day 0, Day 2 / Weight as % of Day 0, Day 3 / Weight as % of Day 0, Day 7 / Weight as % of Day 0, Day 9: mice
Experimental: The actinomycin D prodrug (AMDPD) of formula V was tested for toxicity in mice. Groups of 3 mice were given 1, 10 or 100 mg/kg body weight i.p. of AMPD, and two further groups of 3 mice were given 1 and 10 mg/kg body weight i.p. of actinomycin D (AMD) dissolved in arachis oil. A further group of 3 mice were untreated, and a final group of 3 mice were given arachis oil i.p. only.
The body weight of the mice were monitored over 9 days. All mice treated with 10 mg/kg of AMD were dead by day 1. […] In practice, the toxicity of AMDPD is likely to be even lower, since the preparation of AMDPD used contains about 1% unconverted AMD.

E. coli B nitroreductase [4] = molecular target: T2, E. coli B nitroreductase (Escherichia coli, UniProt P38489); assay: Formation of actinomycin D by the nitroreductase upon prodrug V (HPLC); format: biochemical; details: V 100 μM, 500 μM NADH, enzyme 2 μg/ml, pH7, 37° C.
T2 construct: endogenous in cells; host or cells: E. coli B cell paste; endogenous enzyme purified by Phenyl-Sepharose and Q-Sepharose chromatography, not recombinant
Experimental: Disappearance of the prodrug N-4-nitro-benzyloxycarbonyl-actinomycin D (V) and formation of actinomycin D during incubation with the E. coli B nitroreductase of Example 1 is shown in FIG. 2.

E. coli nitroreductase [5] = molecular target: T1, E. coli nitroreductase; assay: Enzymatic reduction of CB 1954 followed by HPLC; format: biochemical, E. coli B
Experimental: Enzymatic reduction of CB 1954. CB 1954 (100 μM and also containing [U-^3 H] C.B 1954 at 1.6×10^5 dpm per nmole), NADH or NAD(P)H (500 μM) were incubated with the active enzyme obtained as described in Example 1, (generally 2 μg/ml E. coli nitroreductase or 35 μg/ml Walker NAD(P)H dehydrogenase (quinone) EC 1.6.99.2) in 10 mM sodium phosphate buffer (pH 7) under either air or helium. At various times aliquots (10 μl) were injected onto a Partisphere SCX (110×4.7 mm) HPLC column and eluted isocratically (2 ml/min) with 100 mM NaH2 PO4.
(§8) The eluate was continuously monitored for adsorption at 310, 260 and 360 nm and the spectra of eluting components recorded using a diode-array detector. Samples (0.5 ml) were collected and the tritium activity of each determined by liquid scintillation counting. This separation system could resolve all the expected reduction products.
(§9) To confirm further the identity of any reduction products, the above reduction mixture was also injected onto an ODS-5 reverse phase HPLC column and eluted (1 ml/min) with a methanol gradient (0-30% linear over 30 min, 30-100% linear over 10 min.) in 0.1 M sodium phosphate buffer (pH 7).

V79 cells [6] = assay: Survival (colony-forming ability) of V79 cells treated with CB 1954 in the presence of E. coli B nitroreductase (Table 4); format: cell-based, Hamster
Experimental: (§10) E. coli B nitroreductase. All treatments were for 2 hours at 37°
(§11) cells were then plated out for their resulting colony-forming ability.
(§12) nitroreductase concentration was 2 μg/ml and NADH was used as a […]

E. coli B nitroreductase [7] = molecular target: T2, E. coli B nitroreductase; assay: % drug reduction in the V79 incubations (Table 4); format: biochemical
Experimental: The effect of CB 1954 on the survival of V79 cells in the presence of the
as §10, §11, §12

E. coli B nitroreductase [8] = molecular target: T2, E. coli B nitroreductase; assay: Enzyme kinetic and inhibition studies; format: biochemical; details: saturating conditions
Experimental: Protein concentration was determined using the a conventional protein assay (Bio-Rad) calibrated against bovine serum albumin.

[9] = molecular target: T3, Walker NAD(P)H dehydrogenase (quinone) EC 1.6.99.2 (Rattus norvegicus, UniProt P05982); assay: Enzymatic reduction of CB 1954 followed by HPLC; format: biochemical; details: reduction of 50 μM of CB 1954
T3 construct: the enzyme isolated from the Walker tumour, EC.1.6.99.2; from tissue; host or cells: Walker tumour (Walker cell)
T3 sequence (P05982 2-274 limits assumed): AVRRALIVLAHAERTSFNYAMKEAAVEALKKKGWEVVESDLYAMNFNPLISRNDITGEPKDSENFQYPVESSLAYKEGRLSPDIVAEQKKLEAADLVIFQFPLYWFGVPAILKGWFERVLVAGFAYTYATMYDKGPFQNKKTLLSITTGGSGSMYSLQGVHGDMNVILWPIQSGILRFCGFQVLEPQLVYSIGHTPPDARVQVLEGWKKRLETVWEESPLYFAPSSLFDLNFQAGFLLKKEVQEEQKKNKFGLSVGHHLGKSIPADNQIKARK
Experimental: Enzymatic reduction of CB 1954. […] At various times aliquots (10 μl) were injected onto a Partisphere SCX (110×4.7 mm) HPLC column and eluted isocratically (2 ml/min) with 100 mM NaH2 PO4.
as §8, §9

E. coli nitroreductase [10] = molecular target: T1, E. coli nitroreductase; assay: Substrate specificity: relative rate of NADH oxidation by HPLC (Table 5); format: biochemical; details: relative to CB 1954; 37° C. in air, NADH 500 μM, substrate 100 μM
Experimental: The ability of the E. coli nitroreductase of the invention to reduce nitro-compounds other than CB 1954 was determined by HPLC by following the decrease in the peak area of NADH resulting from its oxidation. The experiments were carried out as above but the aliquots were injected onto a Partisphere SAX (110×4.7 mm) HPLC column and eluted isocratically (1 ml/min) with 75 mM NaH2 PO4.
The relative rates of reduction of various nitrobenzamides and
nitrobenzenes with E. coli nitroreductase enzyme. Reduction
rates were determined by the resulting oxidation of NADH. All
reactions were carried out at 37° C. in air, with NADH (500
electron donor, at an initial substrate concentration of 100 μM.

E. coli B nitroreductase [11] = molecular target: T2, E. coli B nitroreductase; assay: Formation of mitomycin C by the nitroreductase upon prodrug VII (HPLC); format: biochemical; details: VII 100 μM, 500 μM NADH, enzyme 5 μg/ml, pH7, 37° C.
Experimental: Prodrug VII (100 μM) and cofactor (500 μM NADH) were incubated with enzyme (5 μg/ml E. coli B nitroreductase of Example 1) in 10 mM sodium phosphate buffer (pH7) in air at 37° C. At various times aliquots (10 μl) were injected onto a Partisphere C18 reverse-phase (150×4.7mm) HPLC column and eluted isocratically (2.0 ml/min) with 50% methanol in water. The eluate was continuously monitored for absorption at 260 and 340 nm and the concentration of the drugs calculated by integration of the peak corresponding to the compound on the HPLC trace.

[12] = NR 10 μg/ml + 1 μM prodrug + 500 μM NADH
[13] = NR 2 μg/ml + 50 μM CB 1954, no NADH
[14] = NR 2 μg/ml + CB 1954 + 500 μM NADH

T1 sequence (P38489 whole entry): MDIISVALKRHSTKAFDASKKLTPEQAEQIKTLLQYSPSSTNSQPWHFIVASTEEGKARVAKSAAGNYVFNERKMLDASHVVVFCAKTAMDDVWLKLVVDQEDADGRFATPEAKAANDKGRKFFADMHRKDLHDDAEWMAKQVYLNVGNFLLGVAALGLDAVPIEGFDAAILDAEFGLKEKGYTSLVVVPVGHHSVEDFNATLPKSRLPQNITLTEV
T2 sequence (P38489 whole entry): as above

Compound: Cc1c2oc3c(C)ccc(C(=O)NC4C(=O)NC(C(C)C)C(=O)N5CCCC5C(=O)N(C)CC(=O)N(C)C(C(C)C)C(=O)OC4C)c3nc-2c(C(=O)NC2C(=O)NC(C(C)C)C(=O)N3CCCC3C(=O)N(C)CC(=O)N(C)C(C(C)C)C(=O)OC2C)c(NC(=O)OCc2ccc([N+](=O)[O-])cc2)c1=O (stereo not shown) [V, N-4-Nitrobenzyloxycarbonyl-actinomycin D]
- % DRUG REDUCTION (E. coli nitroreductase [1]; 1 μM prodrug alone): < 1.0%
- % DRUG REDUCTION (E. coli nitroreductase [1]; 10 μM prodrug alone): < 1.0%
- % DRUG REDUCTION (E. coli nitroreductase [1]; [12]): 90.5%
- % DRUG REDUCTION (E. coli nitroreductase [1]; NR 10 μg/ml + 10 μM prodrug + 500 μM NADH): 93%
- % SURVIVAL (V79 cells [2]; 1 μM prodrug alone): 98.3%
- % SURVIVAL (V79 cells [2]; 10 μM prodrug alone): 39.3%
- % SURVIVAL (V79 cells [2]; [12]): 27.4%
- Weight as % of Day 0, Day 2 ([3]; dose 1.0 mg/kg i.p.): 102%
- Weight as % of Day 0, Day 3 ([3]; dose 1.0 mg/kg i.p.): 101%
- Weight as % of Day 0, Day 7 ([3]; dose 1.0 mg/kg i.p.): 101%
- Weight as % of Day 0, Day 9 ([3]; dose 1.0 mg/kg i.p.): 103%
- Weight as % of Day 0, Day 2 ([3]; dose 10 mg/kg i.p.): 109%
- Weight as % of Day 0, Day 3 ([3]; dose 10 mg/kg i.p.): 105%
- Weight as % of Day 0, Day 7 ([3]; dose 10 mg/kg i.p.): 108%
- Weight as % of Day 0, Day 9 ([3]; dose 10 mg/kg i.p.): 110%
- deaths ([3]; dose 100 mg/kg i.p., groups of 3 mice, Day 2): 1 dead
- Weight as % of Day 0, Day 2 ([3]; dose 100 mg/kg i.p.): 96.4%
- Weight as % of Day 0, Day 3 ([3]; dose 100 mg/kg i.p.): 95.6%
- Weight as % of Day 0, Day 7 ([3]; dose 100 mg/kg i.p.): 95%
- Weight as % of Day 0, Day 9 ([3]; dose 100 mg/kg i.p.): 96%
- release of actinomycin D from the prodrug (E. coli B nitroreductase [4]): Only when the enzyme was present was actinomycin D released

Compound: NC(=O)c1cc(N2CC2)c([N+](=O)[O-])cc1[N+](=O)[O-] [CB 1954, 5-(aziridin-1-yl)-2,4-dinitrobenzamide]
- rate of reduction of CB 1954 or product formation (E. coli nitroreductase [5]; co-factor NAD(P)H or NADH, under helium): the same
- nitroreductase more active per mg protein than NAD(P)H dehydrogenase (quinone), initial rates of 4-hydroxylamine formation (E. coli nitroreductase [5]; standard conditions): 31.2 fold
- nitroreductase more active than NAD(P)H dehydrogenase (quinone) by CB 1954 reduction (E. coli nitroreductase [5]; standard conditions): 62 fold
- 4-hydroxylamine formed (E. coli nitroreductase [5]; when 67 μM of CB 1954 was reduced): 33 µM
- % SURVIVAL (V79 cells [6]; 50 μM CB 1954, 2 hours 37° C.): 100%
- % SURVIVAL (V79 cells [6]; NADH + CB 1954, no enzyme, 2 hours 37° C.): 41%
- % SURVIVAL (V79 cells [6]; [13]): 99%
- % SURVIVAL (V79 cells [6]; [14]): 0.024%
- % DRUG REDUCTION (E. coli B nitroreductase [7]; 50 μM CB 1954 alone): < 1.0%
- % DRUG REDUCTION (E. coli B nitroreductase [7]; NADH + CB 1954, no enzyme): < 1.0%
- % DRUG REDUCTION (E. coli B nitroreductase [7]; [13]): < 1.0%
- % DRUG REDUCTION (E. coli B nitroreductase [7]; [14]): 72%
- kcat for CB 1954 reduction higher for the E. coli nitroreductase than Walker enzyme (E. coli B nitroreductase [8]): 90 fold
- 4-hydroxylamine formed [9]: 50 µM
- RELATIVE RATE OF NADH OXIDATION NR (E. coli nitroreductase [10]): 1.0

Compound: COC12C(COC(N)=O)C3=C(C(=O)C(C)=C(N)C3=O)N1CC1C2N1C(=O)OCc1ccc([N+](=O)[O-])cc1 (stereo not shown) [VII, N-4-Nitrobenzyloxycarbonyl-mitomycin C]
- release of mitomycin C from the prodrug (E. coli B nitroreductase [11]): Only in the presence of the enzyme is mitomycin C released
